Measurements taken from patent US11905306B2 (priority 2021, dated 2024).

How the values were obtained:
SARS-2 [1] = experiment: microbe, parasite or virus in culture; format: cell-based; conditions: Severe acute respiratory syndrome coronavirus 2, read-out: SARS-2 VU-EC50 (μM) (A549-hACE2)
USA_WA1/2020 SARS CoV-2 = experiment: microbe, parasite or virus in culture; format: cell-based; conditions: Severe acute respiratory syndrome coronavirus 2, Vero C1008, 72 h, read-out: SARS-2 EC50 (μM) VeroE6
Toronto 2 SARS CoV-1 = experiment: organism not typed; format: cell-based; conditions: Vero C1008, 72 h, read-out: SARS-1 EC50 (μM) VeroE6
in vitro = conditions: African green monkey
SARS-2 [2] = system: SARS-2

| SMILES | EC50 (SARS-2 [1]) [µM] | EC50 (USA_WA1/2020 SARS CoV-2) [µM] | EC50 (Toronto 2 SARS CoV-1) [µM] | CC50 (in vitro) [µM] | SARS-2 VU-VTR @ 20 μM (A549-hACE2) (logs) (SARS-2 [2]) |
| --- | --- | --- | --- | --- | --- |
| O=C1CCc2cc(C(=O)Nc3cccc(C#Cc4ccccn4)c3)ccc2N1 [Compound 1, 2-Oxo-N-(3-(pyridin-2-ylethynyl)phenyl)-1,2,3,4-tetrahydroquinoline-6-carboxamide] | 7.32 | 5.81 ± 2.51 | 5.07 ± 2.89 | > 30 | 1.95 |
| CN1C(=O)CCc2cc(C(=O)Nc3cccc(C#Cc4ccccn4)c3)ccc21 [Compound 2, 1-Methyl-2-oxo-N-(3-(pyridin-2-ylethynyl)phenyl)-1,2,3,4-tetrahydroquinoline-6-carboxamide] | 3.59 | 2.55 | 1.46 | > 30 | 3.32 |
| O=C1CCCc2cc(C(=O)Nc3cccc(C#Cc4ccccn4)c3)ccc2N1 [Compound 4, 2-Oxo-N-(3-(pyridin-2-ylethynyl)phenyl)-2,3,4,5-tetrahydro-1H-benzo[b]azepine-7-carboxamide] | 1.5 | 1.5 | 1.39 | 22.9 | 2.55 |
| CC(=O)Nc1ccc(C(=O)Nc2cccc(C#Cc3ccccn3)c2)cc1 [Compound 5, 4-Acetamido-N-(3-(pyridin-2-ylethynyl)phenyl)benzamide] | 3.58 | 3.89 | 2.14 | > 30 | 2.05 |
| O=C(Nc1cccc(C#Cc2ccccn2)c1)c1ccc(NC(=O)C2CC2)cc1 [Compound 8, 4-(Cyclopropanecarboxamido)-N-(3-(pyridin-2-ylethynyl)phenyl)benzamide] | 1.07 | 0.94 | 0.47 | > 30 | 1.53 |
| O=C(Nc1cccc(C#Cc2ccccn2)c1)c1ccc(NC(=O)C2CCC2)cc1 [Compound 9, 4-(Cyclobutanecarboxamido)-N-(3-(pyridin-2-ylethynyl)phenyl)benzamide] | 0.69 | 0.26 | 0.21 | > 30 | 1.88 |
| O=C(Nc1cccc(C#Cc2ccccn2)c1)c1ccc(N2CCNC2=O)cc1 [Compound 14, 4-(2-Oxoimidazolidin-1-yl)-N-(3-(pyridin-2-ylethynyl)phenyl)benzamide] | 2.31 | 1.06 | 1.05 | > 30 | 1.84 |
| CC(C)N1CCN(c2ccc(C(=O)Nc3cccc(C#Cc4ccccn4)c3)cc2)C1=O [Compound 17, 4-(3-Isopropyl-2-oxoimidazolidin-1-yl)-N-(3-(pyridin-2-ylethynyl)phenyl)benzamide] | 0.43 | 0.61 | 2.37 | > 30 | 2.12 |
| O=C(Nc1cccc(C#Cc2ccccn2)c1)c1ccc(N2CCCCC2=O)cc1 [Compound 22, 4-(2-Oxopiperidin-1-yl)-N-(3-(pyridin-2-ylethynyl)phenyl)benzamide] | 1.05 | 1.87 | 1.3 | > 30 | 2.4 |
| O=C(Nc1ccc(C(=O)Nc2cccc(C#Cc3ccccn3)c2)cc1)c1ccc(F)cc1 [Compound 26, 4-Fluoro-N-(4-((3-(pyridin-2-ylethynyl)phenyl)carbamoyl)phenyl)benzamide] | 0.69 | 0.49 | 0.35 | > 30 | 1.16 |
| CC(=O)Nc1ccc(C(=O)Nc2cccc(C#Cc3ccccn3)c2)cc1F [Compound 29, 4-Acetamido-3-fluoro-N-(3-(pyridin-2-ylethynyl)phenyl)benzamide] | 1.86 | 1.07 | 0.76 | > 30 | 2.6 |
| O=C(Nc1cccc(C#Cc2ccccn2)c1)c1ccc(-c2ccn[nH]2)cc1 [Compound 40, 4-(1H-Pyrazol-5-yl)-N-(3-(pyridin-2-ylethynyl)phenyl)benzamide] | 0.81 | 1 | 0.53 | 38.6 | 3.2 |
| COC(=O)c1ccc(C(=O)Nc2cccc(C#Cc3ccccn3)c2)cc1 [Compound 43, Methyl 4-((3-(pyridin-2-ylethynyl)phenyl)carbamoyl)benzoate] | 0.58 | 0.52 | 0.26 | > 30 | 2.36 |
| CC(C)(C)OC(=O)c1ccc(C(=O)Nc2cccc(C#Cc3ccccn3)c2)cc1 [Compound 44, tert-Butyl 4-((3-(pyridin-2-ylethynyl)phenyl)carbamoyl)benzoate] | 0.22 | 0.16 | 0.07 | 24.2 | 2.41 |
| COc1cc(C#Cc2ccccn2)cc(NC(=O)c2ccc3c(c2)CCC(=O)N3)c1 [Compound 46, N-(3-Methoxy-5-(pyridin-2-ylethynyl)phenyl)-2-oxo-1,2,3,4-tetrahydroquinoline-6-carboxamide] | 0.53 | 0.78 | 0.83 | > 30 | 2.66 |
| COc1cc(C#Cc2ccccn2)cc(NC(=O)c2ccc(N3CCCCC3=O)cc2)c1 [Compound 48, N-(3-Methoxy-5-(pyridin-2-ylethynyl)phenyl)-4-(2-oxopiperidin-1-yl)benzamide] | 0.1 | 0.45 | 0.21 | > 30 | 3.08 |

| SMILES | EC50 (SARS-2 [1]) [µM] | EC50 (USA_WA1/2020 SARS CoV-2) [µM] | EC50 (Toronto 2 SARS CoV-1) [µM] | CC50 (in vitro) [µM] | SARS-2 VU-VTR @ 20 μM (A549-hACE2) (logs) (SARS-2 [2]) |
| --- | --- | --- | --- | --- | --- |
| O=C(Nc1cc(C#Cc2ccccn2)cc(OC(F)(F)F)c1)c1ccc(N2CCCCC2=O)cc1 [Compound 50, 4-(2-Oxopiperidin-1-yl)-N-(3-(pyridin-2-ylethynyl)-5-(trifluoromethoxy)phenyl)benzamide] | 0.09 | 0.18 | 0.13 | > 30 | 2.59 |
| O=C1CCc2cc(NC(=O)c3cccc(C#Cc4ccccn4)c3)ccc2N1 [Compound 54, N-(2-oxo-1,2,3,4-tetrahydroquinolin-6-yl)-3-(pyridin-2-ylethynyl)benzamide] | 1.42 | 3 | > 30 | > 30 | 2.24 |
| CC1(C)CN(c2ccc(NC(=O)c3cccc(C#Cc4ccccn4)c3)cc2)C1=O [Compound 58, N-(4-(3,3-dimethyl-2-oxoazetidin-1-yl)phenyl)-3-(pyridin-2-ylethynyl)benzamide] | 0.38 | 0.5 | 0.3 | > 40 | 1.93 |
| O=C(Nc1ccc(N2CCCCC2=O)cc1)c1cccc(C#Cc2ccccn2)c1 [Compound 59, N-(4-(2-oxopiperidin-1-yl)phenyl)-3-(pyridin-2-ylethynyl)benzamide] | 0.66 | 2 | 1.05 | > 30 | 2.98 |
| COC(=O)c1cccc(NC(=O)c2cccc(C#Cc3ccccn3)c2)c1 [Compound 64, Methyl 3-(3-(pyridin-2-ylethynyl)benzamido)benzoate] |  | > 30 | 4.19 | 21.7 |  |
| CC(C)(C)c1ccc(NC(=O)c2cccc(C#Cc3ccccn3)c2)cc1 [Compound 67, N-(4-(tert-butyl)phenyl)-3-(pyridin-2-ylethynyl)benzamide] |  | 4.25 | 3.51 | > 30 |  |
| O=C(Nc1ccc(C(O)(C(F)(F)F)C(F)(F)F)cc1)c1cccc(C#Cc2ccccn2)c1 [Compound 68, N-(4-(1,1,1,3,3,3-hexafluoro-2-hydroxypropan-2-yl)phenyl)-3-(pyridin-2-ylethynyl)benzamide] |  | 27.7 | 0.52 | 9.72 |  |
| CC(=O)Nc1ccc(NC(=O)c2cccc(C#Cc3ccccn3)c2)cn1 [Compound 71, N-(6-acetamidopyridin-3-yl)-3-(pyridin-2-ylethynyl)benzamide] |  | 4.13 | 3.98 | > 30 |  |
| COc1cc(C#Cc2ccccn2)cc(C(=O)Nc2ccc(N3CCCCC3=O)cc2)c1 [Compound 72, 3-methoxy-N-(4-(2-oxopiperidin-1-yl)phenyl)-5-(pyridin-2-ylethynyl)benzamide] |  | 0.51 | 0.24 | 26.6 |  |
| O=C(Nc1ccc(N2CCCS2(=O)=O)cc1)c1cccc(C#Cc2ccccn2)c1 [Compound 74, N-(4-(1,1-dioxidoisothiazolidin-2-yl)phenyl)-3-(pyridin-2-ylethynyl)benzamide] |  | > 30 | 0.91 | > 30 |  |
| COc1cc(C#Cc2ccccn2)cc(C(=O)Nc2ccc(N3CCCCS3(=O)=O)cc2)c1 [Compound 75, N-(4-(1,1-dioxido-1,2-thiazinan-2-yl)phenyl)-3-methoxy-5-(pyridin-2-ylethynyl)benzamide] |  | 0.128 | 0.065 | > 30 |  |
| COc1cc(C#Cc2ccccn2)cc(NC(=O)c2ccc(N3CCCCS3(=O)=O)cc2)c1 [Compound 76] |  | 0.189 | 0.172 | > 30 |  |
| O=C(Nc1cccc(C#Cc2ccccn2)c1)c1ccc(N2CCCCS2(=O)=O)cc1 [Compound 77] |  | 0.957 | 0.791 | > 30 |  |
| N#Cc1cc(C#Cc2ccccn2)cc(NC(=O)c2ccc(N3CCCCC3=O)cc2)c1 [Compound 78] |  | 1.97 | 1.54 | > 30 |  |
| COc1cc(C#Cc2ccccn2)cc(C(=O)Nc2ccc(CC3CC(=O)NC3=O)cc2)c1 (stereo not shown) [Compound 79] |  | 8.19 | 4.45 | > 30 |  |
